According to patent US20250000841A1, “Administration of Resiniferatoxin For Treatment of Prostate Cancer” (Sorrento Therapeutics, Inc., priority 2021, published 2025):

What was measured:
[1] = test system: human DU145 prostate carcinoma xenograft tumor tissue; test: H&E staining and immunofluorescence of dissected xenograft tumor tissues; type: in vivo, mouse; details: immunofluorescence of tumor tissue, FIG. 3C
Protocol: (§1) FIGS. 3A, 3B and 3C show RTX inhibits prostate carcinoma progression in a cytostatic manner. […] RTX was administered locally (peritumorally) every other day at the indicated dose starting at 28 days after engraftment. The cytostatic activity appeared to be dose-independent in the tested range of 0.1-1 μg/dose. […] Scale, 100 μm. CD31+ blood vessel length and cleaved caspase 3 levels (expressed as median fluorescence intensity, MFI) are quantified in FIG. 3C.
Dissected tumor tissues were assessed by H&E staining and by immunofluorescence for CD31 (tumor vessel marker), DRAQ7 (nuclear marker), and cleaved caspase 3 (apoptotic cell maker). […] (FIG. 3B, upper row). […] (FIG. 3B, middle row).

[2] = test system: human prostate cancer cell line DU145; test: proliferation assay, prostate cancer cell line DU145; type: cell-based; details: DU145 cells cultured with varying amounts of RTX, FIG. 2C
Description: (§2) Proliferation measurements were normalized to an untreated control.

[3] = test system: human DU145 prostate carcinoma cells engrafted s.c.; test: mouse xenograft tumor model, tumor volume over time; type: in vivo; details: 0.1, 0.5 and 1 μg/dose, local (peritumoral) every other day from day 28 after engraftment, FIG. 3A
Protocol: as §1

[4] = test system: human prostate cancer cell line LNCaP; test: proliferation assay, prostate cancer cell line LNCaP; type: cell-based; details: LNCaP cells cultured with varying amounts of RTX, FIG. 2C
Description: as §2

[5] = test system: tumor associated inflammatory cytokines (IL-6, IFNγ); test: cytokine array of xenograft tumor tissue homogenates; type: in vivo, mouse
Description: Reduced IL-6 expression in a dose-dependent manner is shown magnified (FIG. 4A).
Some studies of RTX have reported a potential to induce neurologic inflammatory responses. […] Tumor tissue homogenate samples from mouse xenograft tumor models described in Example B were taken at necroptic endpoint and analyzed for tumor associated inflammatory cytokine levels using a cytokine array (FIG. 4A).

C=C(C)[C@]12C[C@@H](C)[C@@]34O[C@](Cc5ccccc5)(O[C@@H]1[C@@H]3C=C(COC(=O)Cc1ccc(O)c(OC)c1)C[C@]1(O)C(=O)C(C)=C[C@@H]41)O2 [RTX, Resiniferatoxin]
tumor cell apoptosis (cleaved caspase 3 staining) ([1]; FIG. 3B lower row): tumor cell apoptosis increased | CD31+ tumor vasculature ([1]; FIG. 3B middle row): decreased contiguous CD31+ stained structures | proliferation (normalized to untreated control) [2]: dose-dependent decreases in proliferation | cytostatic efficacy (tumor volume) [3]: potent cytostatic efficacy in a dose-independent manner | proliferation (normalized to untreated control) [4]: dose-dependent decreases in proliferation | Cytokine Release Syndrome (inflammatory cytokine expression) ([5]; tumor homogenates taken at necroptic endpoint, FIG. 4A): no indication of Cytokine Release Syndrome (CRS) | IFNγ expression ([5]; tumor homogenates, cytokine array): did not induce elevated expression of IFNγ | IL-6 expression ([5]; tumor homogenates, higher RTX doses, FIG. 4A-C): reduced expression
